# In publication PMC12040169 (PLOS Biology, 2025):
# Test: in vitro
# Conditions: human, hela cells, % viability
row,SMILES,"viability at 28.5 h, 10 µM"
1,COc1ccc(F)cc1-c1cccc(CC2(C(=O)NCc3cccs3)CCOCC2)c1 [CBK285543],90.6%
2,CCN(CC)CCN(C(=O)NCCc1c[nH]c2ccc(OC)cc12)C(C)c1ccc(OC)c(OC)c1 (centres unmarked) [CBK158948],90.4%
3,CCn1c(C2CCN(C(=O)CCCn3cncn3)CC2)nn(C)c1=O [CBK307326],92.4%
4,O=C(NCCc1cccnc1)Nc1ccc(CN2CCCC2=O)cc1 [CBK306461],80%
5,Cn1c(=O)c2c(nc(S)n2CCCc2ccccc2)n(C)c1=O [CBK288411],105%
6,CCNc1cncc(-c2ccc(N)cc2)n1 [CBK065658],112%
7,Cc1cc(I)ccc1NC(=O)CCC(=O)N/N=C/c1ccco1 [CBK261991],99.4%
8,COc1cc(NC(=O)CC2(C(=O)O)CCCCC2)ccc1N1CCCC1=O [CBK296761],109%
9,c1ccc(CCn2nnnc2CN2CCN(c3ccccc3)CC2)cc1 [CBK069271],95.2%
10,c1ccc(OCCN2CCCN(c3nccc(OCCN4CCOCC4)n3)CC2)cc1 [CBK083940],110%
11,COc1ccc(CNC(=O)[C@H]2C=CCN2C(=O)c2ccco2)cc1 [CBK284321],71.9%
12,CC(=O)Nc1sc(/C(C#N)=C/c2cccc(Oc3ccccc3)c2)nc1-c1ccc(C)cc1 [CBK264895],98.4%
13,O=C(c1cccnc1)N1CCCC2(CCN(C(=O)c3ccoc3)C2)C1 (centres unmarked) [CBK131640],97%
14,CC1(CNC(=O)C2CC(=O)N(C3CCCCC3)C2)COC1 (centres unmarked) [CBK281754],97%
15,COc1ccc(C2CCN(CC(=O)NC(C)(C)C)CC2)cc1 [CBK283558],92.7%
16,CC(=O)NC1(c2ccccc2F)CCN(c2ncc(-c3ccco3)c(-c3ccco3)n2)CC1 [CBK286428],95.3%
17,Cc1cc(C(=O)N2CCn3cnnc3C2)c(C2CC2)o1 [CBK282059],115%
18,Cc1cc(O)n(-c2cc(-c3ccccc3)nc(-c3ccccc3)n2)n1 [CBK262014],95.5%
19,N=c1n(CCN2CCCCC2)c2ccccc2n1CC(=O)c1cccs1 [CBK278244B],85%
20,Cc1nc(-c2ccc(NCC(O)c3ccco3)nc2)[nH]c(=O)c1C (centres unmarked) [CBK305254],94.6%
21,CCn1cc(CN2CCCC(c3cc4cccnc4[nH]3)C2)c(C)n1 (centres unmarked) [CBK284701],89.2%

row,SMILES,"viability at 28.5 h, 10 µM"
1,O=C(CSCc1nc2ccccc2[nH]1)Nc1ccc2ccccc2c1 [CBK263262],90.5%
2,O=C(NC1(c2ccccc2)CC1)c1ccc(-n2cnnc2)cc1 [CBK282778],111%
3,CC(NC(=O)C(C)(C)C)c1nc(-c2ccncc2)n[nH]1 (centres unmarked) [CBK104074],91.9%
4,CCC(CC)C(=O)N1CCCC1c1nn(C)cc1-c1cc(C)no1 (centres unmarked) [CBK283452],84.5%
5,O=C(Nc1ccccc1C(=O)N1CCOCC1)C1CCN(C(=O)c2ccco2)CC1 [CBK270272],105%
6,Cc1cc(N2CCN(C(=O)CCc3nccs3)CC2)nc(C(C)C)n1 [CBK304778],98.8%
7,N#Cc1ccc(Oc2cccc(/N=C/c3ccc(/C=N/c4cccc(Oc5ccc(C#N)cc5)c4)cc3)c2)cc1 [CBK261157],93.7%
8,O=C(c1ccccc1CCc1ccccc1)N1CCN(Cc2ccc3c(c2)OCO3)CC1 [CBK268623],120%
9,CC(=O)c1ccc(NC(=O)C(C)SCc2ccc(C)cc2)cc1 (centres unmarked) [CBK296616],96.7%
10,O=C(Nc1ccc2oc(-c3cccnc3)nc2c1)c1ccc(-c2cccc([N+](=O)[O-])c2)o1 [CBK262945],106%
11,CCn1ncc2c1CCCC2NC1CCN(c2ccccc2F)C1=O (centres unmarked) [CBK305279],108%
12,CC(C)Cn1cncc1CNC(=O)Nc1ccc2[nH]nnc2c1 [CBK306549],91.9%
13,C/C(=N\NC(=O)CN(c1ccc(C)cc1)S(=O)(=O)c1ccccc1)c1ccc(Cl)cc1 [CBK262229],93.3%
14,Cc1c(C(=O)N2CCNC(=O)C2(C)C)nnn1Cc1ccc(F)cc1F [CBK305461],80.2%
15,Cc1nnc([C@H]2CCN(Cc3cccs3)C2)o1 [CBK289393],103%
16,CN1CCC(C(=O)N2CCN(CCc3ccccc3)CC2)CC1 [CBK200216],103%
17,CC1(C)[C@H](Cc2cc(CO)on2)C[C@@H]1N(Cc1ccncc1)Cc1ccncc1 [CBK289233],98.2%
18,COc1ccc(-c2n[nH]c(=S)n2CCC(=O)NCCc2cc(C)n(-c3ccccc3)c2C)cc1 [CBK295632],97.6%
19,O=S(=O)(CCc1ccccn1)N1CCC(Cc2ccccc2)CC1 [CBK043632],107%
20,CC(=O)N(C)c1nc(-c2ccccc2C)ccc1C(=O)NC1CCCCC1 [CBK106333],96.9%
21,NC(=O)CCNC(=O)C1(c2ccccc2)CCCC1 [CBK160929],104%

row,SMILES,"viability at 28.5 h, 10 µM"
1,CCOC(=O)c1[nH]c2ccccc2c1NC(=O)c1c(F)ccc(Cl)c1F [CBK160141],120%
2,CN(Cc1ccc(-c2ccc(S(C)(=O)=O)cc2)nc1)C1CCN(C(=O)CC(F)(F)F)CC1 [CBK164098T],99.3%
3,Cn1cc(CN[C@@H]2CCC(=O)N[C@H]2c2cc(F)cc(F)c2)cn1 [CBK282913],100%
4,COc1ccc2oc(-c3ccccc3)c(C(=O)Nc3nccs3)c2c1 [CBK287767],71.8%
5,CS(=O)(=O)Nc1cc(-c2noc([C@@H]3CCCN3Cc3ccccn3)n2)ccn1 [CBK288885],87.3%
6,CCOC(=O)c1ccc(-c2ccc(/C=C/c3nn4cnnc4c(O)c3[N+](=O)[O-])o2)cc1 [CBK268409],107%
7,Clc1ccc(COc2nccnc2OCCOc2ccccc2)cc1Cl [CBK161853],92.5%
8,O=C(O)COc1ccc(/C=C/c2nc3n(n2)C=COc2ccccc2-3)cc1 [CBK286650],80.2%
9,Cc1nc2cc(OCc3nc(C(=O)NCC(O)CO)co3)ccc2s1 (centres unmarked) [CBK307067],102%
10,O=C(NCc1ccc(OC2CCNCC2)cc1)c1cnccn1 [CBK036359T],104%
11,CN1CCC(OCCCn2ccnc2-c2nccn2C)CC1 [CBK307683],96.2%
12,CC(=O)Nc1ccc(S(=O)(=O)Nc2ccc(CC#N)cc2)cc1Cl [CBK044058],87.8%
13,Cc1cccc(C)c1N1CCN(CC(O)COc2ccc3c(C)cc(=O)oc3c2)CC1 (centres unmarked) [CBK270084],91.2%
14,CCOC(=O)C1=C(CSc2nc3ccccc3[nH]2)NC(=O)NC1c1cccc([N+](=O)[O-])c1 (centres unmarked) [CBK268889],96.2%
15,COc1cc(F)ccc1-c1ccc(N)c2ccccc12 [CBK084319],103%
16,Cc1nn(C)cc1S(=O)(=O)N1CCC(c2cccc(Cc3ccccc3Cl)n2)CC1 [CBK286115],95.3%
17,CC(=O)N1CCC2(CCCC[C@H]3CN(CC(=O)N(C)C)CC[C@@H]3NC(=O)CNC2=O)CC1 [CBK292163],94.6%
18,OC(CNc1nccnc1-c1ccccc1Cl)COc1ccccc1 (centres unmarked) [CBK037085],92%
19,O=C(Nc1cccc2cc[nH]c12)c1cc(F)cc(Cl)c1 [CBK160075],88.8%
20,Cc1ccccc1-c1nc2ccc(NC(=O)CCC(=O)O)cc2o1 [CBK269904],93.4%
21,COCC(=O)Nc1ccc([C@@H](O)[C@H]2COCC(=O)N2C)cc1 [CBK289058],106%

row,SMILES,"viability at 28.5 h, 10 µM"
1,Cc1ccc2cc(CNc3ccc(-c4nc5cc(C)ccc5[nH]4)cc3)c(O)nc2c1 [CBK286156],70.8%
2,Cc1cc2c(=O)n(CC(=O)NCc3ccco3)cnc2s1 [CBK071898],91.2%
3,CC1CCc2c(sc(NC(=O)c3nc4ncccn4n3)c2C(N)=O)C1 (centres unmarked) [CBK267631],96.3%
4,COc1cc(C(=O)N2CCC3(CC2)CC(=O)c2cc(CN4CCOCC4)ccc2O3)cc(OC)c1C [CBK169182],109%
5,CCOc1ccc(CC(=O)Nc2ncccc2OCCCC#N)cc1 [CBK304062],90.3%
6,CCOC(=O)c1c(C#N)c(SCc2ccc(Cl)cc2)nc2c1CN(CC)CC2 [CBK021337],90.9%
7,CCCS(=O)(=O)Nc1nccnc1N1CCN(c2cnccn2)CC1 [CBK048828],85.5%
8,COc1ccc(C(=O)N2CCC3(CCCN(C(=O)Cn4cc(C)c(=O)[nH]c4=O)C3)C2)cc1OC (centres unmarked) [CBK137085],107%
9,Cc1cc2nc(/C(C#N)=C/c3ccncc3)[nH]c2cc1C [CBK268745],87.7%
10,COC1CCN(C2CCc3c(Cl)cc(Cl)cc32)CC1 (centres unmarked) [CBK304883],90.6%
11,O=C(NCCOc1ccccc1)c1nn(-c2ncccn2)c2ccccc12 [CBK048494],81%
12,C[C@H](c1ccccc1)n1c(=O)[nH]c2ncc(-c3cccc(/C=C/C(=O)O)c3)nc21 [CBK064983],83.4%
13,O=C(O)c1cc(-c2ccc3c(c2)OCCO3)nc2ccccc12 [CBK262422],92.5%
14,CCN(Cc1ccncc1)C(=O)NCc1cnc(C)cn1 [CBK155128],105%
15,COC(=O)C1=C(C)N(c2cccc(C(F)(F)F)c2)C(=O)/C1=C\c1ccc(C(=O)O)cc1 [CBK265129],92.8%
16,COc1ncc(-c2cnc(N)c(-c3cccc(N(C)C)c3)n2)c(OC)n1 [CBK064017],90.9%
17,NC(=O)C1(Cc2cccc(-c3cccs3)c2)CCN(C(=O)CCc2ccccc2)CC1 [CBK285782],91.3%
18,Cc1ccsc1C(=O)N1CCN(Cc2cc(=O)n3ccccc3n2)CC1 [CBK305044],102%
19,O=c1[nH]c(=O)c2cc(S(=O)(=O)N3CCC(c4ccccc4)C3)ccc2[nH]1 (centres unmarked) [CBK286382],105%
20,COc1ccc(CC2CCCN2C(=O)Cn2cncn2)cc1 (centres unmarked) [CBK306351],97.3%
21,CSCCN1CCC(Oc2nccnc2OCc2cc(C)on2)CC1 [CBK082966T],89.7%

# Same assay, conditions: human, hela cells, % viability, bulk resorufin, single well
row,SMILES,"viability at 28.5 h, 10 µM"
1,N#CC1(c2ccccc2)CCN(C(=O)CCC(F)(F)F)CC1 [CBK091399],97.7%
2,Cc1cc(/C=C2\C(=O)NC(=O)N(c3cccc(F)c3)C2=O)c(C)n1-c1cc(C(=O)O)cc(C(=O)O)c1 [CBK264041],97.3%
